The subject of one assay is trypsin. The assay can be described thus: Fluorogenic protease activity assay, trypsin. Conditions: 10 μM inhibitor, Z-Gly-Gly-Arg-NH2Mec 50 μM, N = 3. The format is biochemical, human. From the text:
(§1) Recombinant human enzymes were sourced as follows: furin and matriptase (R&D Systems); prostasin (Sino Biological); trypsin and chymotrypsin (Sigma-Aldrich); factor Xa and neutrophil elastase (Merck Millipore) and proteinase-3 and cathepsin G (Elastin Products, Missouri). Fluorogenic substrates were sourced as follows: p-Glu-Arg-Thr-Lys-Arg-NH2Mec and Boc-Gln-Ala-Arg-NH2Mec (R&D Systems); Boc-Ile-Glu-Gly-Arg-NH2Mec (Bachem); Z-Gly-Gly-Arg-NH2Mec, MeOSuc-Ala-Ala-Pro-Val-NH2Mec and Suc-Ala-Ala-Pro-Phe-NH2Mec (Sigma-Aldrich). All chemicals and reagents for the synthesis of QUB-F1 were supplied by Sigma-Aldrich unless otherwise indicated. Fmoc-Lys(Boc)-SASRIN resin was sourced from Bachem. Fmoc-protected amino acids and HCTU were supplied by Merck Millipore.
(§2) Recombinant protease activities were assessed using the cognate fluorogenic substrates (final concentration 50 μM) as follows: trypsin (Z-Gly-Gly-Arg-NH2Mec), prostasin and matriptase (Boc-Gln-Ala-Arg-NH2Mec), factor Xa (Boc-Ile-Glu-Gly-Arg-NH2Mec), neutrophil elastase and proteinase 3 (MeO-Suc-Ala-Ala-Pro-Val-NH2Mec), chymotrypsin and cathepsin G (Suc-Ala-Ala-Pro-Phe-NH2Mec). The rate of substrate hydrolysis in the presence or absence of furin inhibitors was assessed by continuous recording at λex 360 nm, λem 480 nm, over a period of 60 minutes using a FLUOstar Optima microplate reader (BMG Labtech). […]

The next assay addresses T1, proteinase 3 (Homo sapiens, UniProt P24158).
T1 construct: purchased Elastin Products, Missouri
T1 sequence (P24158 28-256): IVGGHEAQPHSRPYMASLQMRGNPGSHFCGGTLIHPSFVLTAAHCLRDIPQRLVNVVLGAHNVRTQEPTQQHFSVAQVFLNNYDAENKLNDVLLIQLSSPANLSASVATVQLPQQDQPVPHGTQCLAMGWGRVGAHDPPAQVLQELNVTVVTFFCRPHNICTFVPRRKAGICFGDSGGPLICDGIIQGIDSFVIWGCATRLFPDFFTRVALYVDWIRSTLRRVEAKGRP
Nature of the assay: Fluorogenic protease activity assay, proteinase 3. The format is biochemical. The following applies: 10 μM inhibitor, MeO-Suc-Ala-Ala-Pro-Val-NH2Mec 50 μM, N = 3.
Source text: as §1, §2

In a further assay the test system is chymotrypsin. The assay can be described thus: Fluorogenic protease activity assay, chymotrypsin. Conditions: 10 μM inhibitor, Suc-Ala-Ala-Pro-Phe-NH2Mec 50 μM, N = 3. Type of assay: biochemical, human.
Source text: as §1, §2

A further assay deals with T2, cathepsin G (Homo sapiens, UniProt P08311).
T2 construct: purchased Elastin Products, Missouri
T2 sequence (P08311 21-255): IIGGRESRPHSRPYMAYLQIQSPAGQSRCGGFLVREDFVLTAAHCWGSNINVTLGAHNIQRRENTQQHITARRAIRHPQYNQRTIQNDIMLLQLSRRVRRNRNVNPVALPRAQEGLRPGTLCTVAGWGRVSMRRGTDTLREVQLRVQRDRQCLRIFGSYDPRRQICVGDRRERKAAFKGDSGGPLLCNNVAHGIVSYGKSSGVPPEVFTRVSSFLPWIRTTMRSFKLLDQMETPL
The assay can be described thus: Fluorogenic protease activity assay, cathepsin G. Conditions: 10 μM inhibitor, Suc-Ala-Ala-Pro-Phe-NH2Mec 50 μM, N = 3. The format is biochemical.
Source text: as §1, §2

The subject of a further assay is CuFi-1 epithelial cells. The assay can be described thus: PEA-induced epithelial cell toxicity (LDH cytotoxicity assay). Conditions: 2 μg/ml PEA, 24 h, CF airway epithelial cells. Type of assay: cell-based, human. As for the experimental part: The CuFi-1 cell line was derived from human airway epithelium of a CF patient (F508del/F508del) transformed with a reverse transcriptase component of telomerase, hTERT and human papillomavirus type 16 E6 and E7 genes. Cells were grown as submerged cultures using bronchial epithelial growth medium (BEBM including a supplement pack) containing: epidermal growth factor, hydrocortisone, bovine pituitary extract, transferrin, bovine insulin, triiodothyronine, epinephrine, retinoic acid, penicillin-streptomycin (0.025 μg/ml), gentamycin ([…]) and amphotericin (25 μg/ml).
Cytotoxicity was determined using the LDH-Cytotoxicity Colorimetric Assay Kit II (Bio Vision) in accordance with the instructions provided by the manufacturer. Addition of the supplied cell lysis solution to control wells was used to determine 100% cytotoxicity in each set of experiments.
Fig 4 Effect of furin inhibitors on PEA-induced epithelial cell toxicity. (A) Cell toxicity (%) induced by 2 μg/ml PEA (24 h) was measured in the presence or absence of furin I or QUB-F1. Data represent mean ± s.e.m. *P<0.05. (B) Airway epithelial cell surface furin-like activity was assayed upon application of the furin fluorogenic substrate (pERTKR) to cell cultures in the presence or absence of 10 μM furin I or QUB-F1.

Here are results for one molecule from publication PMC4961418, “A Selective Irreversible Inhibitor of Furin Does Not Prevent Pseudomonas Aeruginosa Exotoxin A-Induced Airway Epithelial Cytotoxicity” (PLoS ONE, 2016).

Side chains are listed from the residue outwards. Peptide text beside a SMILES is read from it. * marks the point of attachment. Biotin = O=C1N[C@H]2[C@H](CS[C@H]2CCCCC(=O)*)N1; X1 = N=C(N)NCCCC(N*)P(=O)(Oc1ccccc1)Oc1ccccc1; Palmitoyl = CCCCCCCCCCCCCCCC(=O)*; Ahx = NCCCCCC(=O)O

Take `CCCCCCCCCCCCCCCC(=O)N[C@@H](CCCCNC(=O)CCCCCNC(=O)CCCC[C@@H]1SC[C@@H]2NC(=O)N[C@@H]21)C(=O)N[C@@H](CCCNC(=N)N)C(=O)N[C@H](C(=O)N[C@@H](CCCCN)C(=O)NC(CCCNC(=N)N)P(=O)(Oc1ccccc1)Oc1ccccc1)C(C)C` (stereo partly drawn) [QUB-F1, N^α-Pal-N^ω-(Biotinyl-Ahx)-Lys-RVKR^P(OPh)2] (Palmitoyl-K([Ahx-Biotin])RVK-X1): in the assay with trypsin, the inhibition of trypsin result was “did not”. Moreover, the “inhibition of proteinase 3” value on proteinase 3 was “Neither compound was found to inhibit”. Besides, the inhibition of chymotrypsin result in the assay with chymotrypsin is on record as “Neither compound was found to inhibit”. Besides, the “inhibition of cathepsin G” value against cathepsin G is “Neither compound was found to inhibit”. Further, the “effect on PEA-induced epithelial cell toxicity” value in the assay on CuFi-1 epithelial cells was “offered no protection”.
